The record followed here is paper PMC3914206.

The target in assay [1] is T1, panel of 442 kinases (Homo sapiens, UniProt Q8TDC3).
T1 construct: purchased KINOMEscan
T1 sequence (Q8TDC3 1-778): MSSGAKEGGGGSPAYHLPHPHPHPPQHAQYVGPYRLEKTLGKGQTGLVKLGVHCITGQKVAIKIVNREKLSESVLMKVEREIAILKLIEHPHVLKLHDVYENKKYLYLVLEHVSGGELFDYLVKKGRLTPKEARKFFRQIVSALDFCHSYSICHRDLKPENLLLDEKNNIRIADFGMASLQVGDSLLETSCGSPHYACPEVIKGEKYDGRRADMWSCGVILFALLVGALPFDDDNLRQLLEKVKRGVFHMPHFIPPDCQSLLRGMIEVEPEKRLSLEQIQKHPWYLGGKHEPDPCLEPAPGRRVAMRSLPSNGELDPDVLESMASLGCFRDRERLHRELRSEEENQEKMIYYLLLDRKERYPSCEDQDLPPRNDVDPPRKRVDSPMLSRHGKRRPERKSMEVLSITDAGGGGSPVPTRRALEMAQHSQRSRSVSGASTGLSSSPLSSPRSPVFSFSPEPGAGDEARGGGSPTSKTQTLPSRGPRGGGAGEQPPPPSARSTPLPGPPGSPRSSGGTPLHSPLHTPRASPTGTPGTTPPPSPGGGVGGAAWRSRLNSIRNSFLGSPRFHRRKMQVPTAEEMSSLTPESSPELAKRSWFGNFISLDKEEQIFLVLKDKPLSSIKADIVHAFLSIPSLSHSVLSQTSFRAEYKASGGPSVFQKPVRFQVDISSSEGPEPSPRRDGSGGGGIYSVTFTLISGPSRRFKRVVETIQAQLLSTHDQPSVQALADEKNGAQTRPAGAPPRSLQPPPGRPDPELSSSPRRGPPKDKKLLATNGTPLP
The class given is binding. Also on record: KINOMEscan: ABL1(F317L)-phosphorylated / KINOMEscan: ABL1(H396P)-nonphosphorylated / KINOMEscan: ABL1(H396P)-phosphorylated / KINOMEscan: ABL1(M351T)-phosphorylated / KINOMEscan: ABL1(T315I)-phosphorylated / KINOMEscan: ABL1-nonphosphorylated / KINOMEscan: ABL1-phosphorylated / KINOMEscan: ACVR2A / KINOMEscan: ACVR2B / KINOMEscan: ADCK3 / KINOMEscan: ADCK4 / KINOMEscan: AKT1 / KINOMEscan: AKT3 / KINOMEscan: ALK / KINOMEscan: ARK5 / KINOMEscan: AURKA / KINOMEscan: AURKC / KINOMEscan: BIKE / KINOMEscan: BMPR1A / KINOMEscan: BMPR1B / KINOMEscan: BMX / KINOMEscan: BRK / KINOMEscan: BRSK1 / KINOMEscan: BRSK2 / KINOMEscan: CAMK1 / KINOMEscan: CAMK1D / KINOMEscan: CAMK1G / KINOMEscan: CAMK2A / KINOMEscan: CAMK2B / KINOMEscan: AAK1 / KINOMEscan: CAMK2D / KINOMEscan: CAMK2G / KINOMEscan: ABL1(F317I)-nonphosphorylated / KINOMEscan: ABL1(F317I)-phosphorylated / KINOMEscan: ABL1(F317L)-nonphosphorylated: unit: % Ctrl. The note with it: Compound Concentration 10 µM. The source says:
(§1) We assessed the selectivity of members of this scaffold using the KINOMEscan methodology across a near comprehensive panel of 442 kinases [[18,27]].

Assay [2] has as its target T2, panel of 442 kinases (Homo sapiens, UniProt O43318).
T2 construct: purchased KINOMEscan
T2 sequence (O43318 1-606): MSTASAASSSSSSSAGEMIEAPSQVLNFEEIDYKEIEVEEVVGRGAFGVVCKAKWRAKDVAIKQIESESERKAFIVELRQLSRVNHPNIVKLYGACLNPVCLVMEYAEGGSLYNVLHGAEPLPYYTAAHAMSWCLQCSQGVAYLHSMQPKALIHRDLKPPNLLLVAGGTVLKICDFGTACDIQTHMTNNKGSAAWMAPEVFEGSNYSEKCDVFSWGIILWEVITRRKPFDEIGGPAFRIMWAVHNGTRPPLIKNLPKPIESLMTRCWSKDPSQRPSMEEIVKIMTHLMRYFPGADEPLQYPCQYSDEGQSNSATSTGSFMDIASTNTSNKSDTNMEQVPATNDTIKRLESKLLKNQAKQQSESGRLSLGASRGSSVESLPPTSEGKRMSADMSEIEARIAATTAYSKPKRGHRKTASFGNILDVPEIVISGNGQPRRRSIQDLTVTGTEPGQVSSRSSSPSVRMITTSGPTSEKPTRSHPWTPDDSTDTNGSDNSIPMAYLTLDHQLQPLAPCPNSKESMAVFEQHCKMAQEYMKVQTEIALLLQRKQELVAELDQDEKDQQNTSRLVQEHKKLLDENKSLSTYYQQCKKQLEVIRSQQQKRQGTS
The format is binding. Also on record: KINOMEscan: ABL1(F317L)-phosphorylated / KINOMEscan: ABL1(H396P)-nonphosphorylated / KINOMEscan: ABL1(H396P)-phosphorylated / KINOMEscan: ABL1(M351T)-phosphorylated / KINOMEscan: ABL1(T315I)-phosphorylated / KINOMEscan: ABL1-nonphosphorylated / KINOMEscan: ABL1-phosphorylated / KINOMEscan: ACVR2A / KINOMEscan: ACVR2B / KINOMEscan: ADCK3 / KINOMEscan: ADCK4 / KINOMEscan: AKT1 / KINOMEscan: AKT3 / KINOMEscan: ALK / KINOMEscan: ARK5 / KINOMEscan: AURKA / KINOMEscan: AURKC / KINOMEscan: BIKE / KINOMEscan: BMPR1A / KINOMEscan: BMPR1B / KINOMEscan: BMX / KINOMEscan: BRK / KINOMEscan: BRSK1 / KINOMEscan: BRSK2 / KINOMEscan: CAMK1 / KINOMEscan: CAMK1D / KINOMEscan: CAMK1G / KINOMEscan: CAMK2A / KINOMEscan: CAMK2B / KINOMEscan: AAK1 / KINOMEscan: CAMK2D / KINOMEscan: CAMK2G / KINOMEscan: ABL1(F317I)-nonphosphorylated / KINOMEscan: ABL1(F317I)-phosphorylated / KINOMEscan: ABL1(F317L)-nonphosphorylated: unit: % Ctrl. Conditions: kinase TAK1; compound concentration 10 µM.
From the text: as §1

Consider `COc1cc(C(=O)N2CCC(N3CCN(C)CC3)CC2)ccc1Nc1ncc2c(n1)N(C1CCCC1)c1ccccc1C(=O)N2C` [Compound 25, 11-cyclopentyl-2-((2-methoxy-4-(4-(4-methylpiperazin-1-yl)piperidine-1-carbonyl)phenyl)amino)-5-methyl-5H-benzo[e]pyrimido[5,4-b][1,4]diazepin-6(11H)-one], for which, at panel of 442 kinases [1], the “KINOMEscan: BRSK1” value stood at 84. On panel of 442 kinases [2], the “% Ctrl, TAK1” value stood at 100 % Ctrl.

Consider `COc1cc(C(=O)N2CCC(N3CCN(C)CC3)CC2)ccc1Nc1ncc2c(n1)N1CCc3cccc(c31)C(=O)N2C` [Compound 24], for which the “KINOMEscan: BRSK1” value at panel of 442 kinases [1] came to 82. The “% Ctrl, TAK1” value on panel of 442 kinases [2] was 100 % Ctrl.

Turning to `COc1cc(C(=O)N2CCC(N3CCN(C)CC3)CC2)ccc1Nc1ncc2c(n1)N(C)c1ccccc1C(=O)N2C` [15 (LRRK2-IN-1)], the “KINOMEscan: BRSK1” value on panel of 442 kinases [1] is listed as 81. The “% Ctrl, TAK1” value at panel of 442 kinases [2] is 98 % Ctrl.

In the case of `CCOc1cc(C(=O)N2CCC(N3CCN(C)CC3)CC2)ccc1Nc1ncc2c(n1)N(C1CCCC1)c1ccccc1C(=O)N2C` [Compound 26], on panel of 442 kinases [1], the “KINOMEscan: BRSK1” value turned out to be 100. Moreover, the “% Ctrl, TAK1” value at panel of 442 kinases [2] amounted to 100 % Ctrl.
